Data from article PMC3382171 (PLoS ONE, 2012).

Key:
Test in all cases: biochemical
Set-up in all cases: Invitrogen SelectScreen kinase panel, percent inhibition at 1 uM, ATP at Km
Details in all cases: read-out: Invitrogen KSS %Inh at 1 µM
[1] = molecular target: BTK (Homo sapiens, UniProt Q06187)
Outline: (§1)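 Commercial kinase panel screens run with ATP at the Km for each kinase. Compounds tested at 1 µM final concentration; values are % inhibition of phosphorylation relative to control.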

[2] = molecular target: ROS1 (Homo sapiens, UniProt P08922)
ROS1, sequence (P08922 whole entry): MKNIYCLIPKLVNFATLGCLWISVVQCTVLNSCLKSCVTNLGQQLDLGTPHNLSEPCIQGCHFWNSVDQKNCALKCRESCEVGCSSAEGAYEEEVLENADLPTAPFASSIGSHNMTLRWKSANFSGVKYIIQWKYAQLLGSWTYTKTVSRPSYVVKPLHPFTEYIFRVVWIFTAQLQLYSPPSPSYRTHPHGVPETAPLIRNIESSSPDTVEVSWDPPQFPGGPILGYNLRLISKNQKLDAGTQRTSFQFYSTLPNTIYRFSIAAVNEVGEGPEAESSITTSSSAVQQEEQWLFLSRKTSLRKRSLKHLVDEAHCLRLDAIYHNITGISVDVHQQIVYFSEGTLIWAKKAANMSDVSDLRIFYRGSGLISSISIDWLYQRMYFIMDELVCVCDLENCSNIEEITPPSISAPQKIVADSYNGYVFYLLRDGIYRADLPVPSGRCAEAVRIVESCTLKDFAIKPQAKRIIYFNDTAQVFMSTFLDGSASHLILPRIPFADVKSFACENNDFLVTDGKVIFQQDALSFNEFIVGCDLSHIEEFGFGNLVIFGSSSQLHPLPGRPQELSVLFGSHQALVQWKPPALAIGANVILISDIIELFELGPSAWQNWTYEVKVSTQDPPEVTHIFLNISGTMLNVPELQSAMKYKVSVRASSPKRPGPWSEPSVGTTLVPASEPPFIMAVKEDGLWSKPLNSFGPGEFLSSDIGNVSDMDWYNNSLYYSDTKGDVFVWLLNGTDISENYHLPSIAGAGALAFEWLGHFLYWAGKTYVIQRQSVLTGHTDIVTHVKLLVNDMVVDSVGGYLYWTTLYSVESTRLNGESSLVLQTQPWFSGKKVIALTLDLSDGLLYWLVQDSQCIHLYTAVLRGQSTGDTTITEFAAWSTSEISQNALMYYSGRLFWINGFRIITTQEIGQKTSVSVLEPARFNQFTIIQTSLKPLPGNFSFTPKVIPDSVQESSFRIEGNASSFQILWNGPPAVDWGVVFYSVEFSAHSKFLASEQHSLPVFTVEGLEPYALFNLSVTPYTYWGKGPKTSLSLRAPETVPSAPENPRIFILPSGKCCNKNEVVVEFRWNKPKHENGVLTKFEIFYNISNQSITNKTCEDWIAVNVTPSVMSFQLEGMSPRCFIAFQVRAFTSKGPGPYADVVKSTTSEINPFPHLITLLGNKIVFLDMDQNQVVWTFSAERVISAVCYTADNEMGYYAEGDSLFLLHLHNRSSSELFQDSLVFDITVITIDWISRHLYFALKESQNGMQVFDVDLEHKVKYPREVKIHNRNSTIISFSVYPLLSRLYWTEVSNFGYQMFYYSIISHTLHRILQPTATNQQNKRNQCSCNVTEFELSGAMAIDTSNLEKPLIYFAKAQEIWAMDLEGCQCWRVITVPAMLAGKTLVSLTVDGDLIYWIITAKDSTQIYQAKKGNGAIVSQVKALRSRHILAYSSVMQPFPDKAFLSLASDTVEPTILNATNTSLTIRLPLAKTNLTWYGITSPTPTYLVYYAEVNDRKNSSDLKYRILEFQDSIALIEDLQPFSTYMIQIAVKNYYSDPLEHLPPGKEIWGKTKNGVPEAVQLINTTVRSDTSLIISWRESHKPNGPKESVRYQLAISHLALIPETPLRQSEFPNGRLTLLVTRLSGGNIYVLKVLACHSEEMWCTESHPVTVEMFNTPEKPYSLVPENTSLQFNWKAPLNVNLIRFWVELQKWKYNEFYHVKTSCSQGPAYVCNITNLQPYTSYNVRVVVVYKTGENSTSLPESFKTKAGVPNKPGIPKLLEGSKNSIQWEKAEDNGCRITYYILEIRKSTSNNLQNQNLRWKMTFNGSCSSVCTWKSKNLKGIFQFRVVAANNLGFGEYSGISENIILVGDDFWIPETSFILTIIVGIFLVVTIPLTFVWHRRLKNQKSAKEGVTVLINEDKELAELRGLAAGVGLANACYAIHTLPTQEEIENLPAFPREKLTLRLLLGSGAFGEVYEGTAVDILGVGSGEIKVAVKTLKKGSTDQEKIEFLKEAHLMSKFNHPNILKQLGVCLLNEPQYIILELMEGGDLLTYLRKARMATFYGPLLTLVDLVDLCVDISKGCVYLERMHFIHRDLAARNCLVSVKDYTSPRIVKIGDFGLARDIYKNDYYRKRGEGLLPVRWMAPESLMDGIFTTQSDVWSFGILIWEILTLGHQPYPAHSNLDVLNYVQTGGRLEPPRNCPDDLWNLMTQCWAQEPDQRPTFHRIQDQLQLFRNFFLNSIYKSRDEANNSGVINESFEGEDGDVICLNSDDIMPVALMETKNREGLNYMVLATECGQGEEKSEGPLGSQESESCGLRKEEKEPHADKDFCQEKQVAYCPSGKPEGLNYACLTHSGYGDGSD
Outline: as §1

[3] = molecular target: ABL1 (Homo sapiens, UniProt P00519)
Outline: as §1

[4] = molecular target: ABL1 T315I (Homo sapiens, UniProt P00519, T315I)
Outline: as §1

[5] = molecular target: MAPKAPK2 (Homo sapiens, UniProt P49137)
Outline: as §1

[6] = molecular target: MAP2K1 (MEK1) (Homo sapiens, UniProt Q02750)
Outline: as §1

[7] = molecular target: NEK7 (Homo sapiens, UniProt Q8TDX7)
NEK7, sequence (Q8TDX7 whole entry): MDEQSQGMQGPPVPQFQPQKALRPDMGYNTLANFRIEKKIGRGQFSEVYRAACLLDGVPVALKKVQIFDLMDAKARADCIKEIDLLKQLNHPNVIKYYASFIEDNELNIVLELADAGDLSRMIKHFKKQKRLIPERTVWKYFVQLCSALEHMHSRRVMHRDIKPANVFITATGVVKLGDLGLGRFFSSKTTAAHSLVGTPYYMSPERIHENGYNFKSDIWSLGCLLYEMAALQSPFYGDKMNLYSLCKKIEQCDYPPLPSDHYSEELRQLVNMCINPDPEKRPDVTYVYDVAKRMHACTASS
Outline: as §1

[8] = molecular target: ZAP70 (Homo sapiens, UniProt P43403)
Outline: as §1

[9] = molecular target: T1, PDK1 (Homo sapiens, UniProt O15530)
T1 construct: gene PDPK1
Outline: as §1

[10] = molecular target: LCK (Homo sapiens, UniProt P06239)
Outline: as §1

[11] = molecular target: PRKCD (PKC delta) (Homo sapiens, UniProt Q05655)
Outline: as §1

[12] = molecular target: EPHB4 (Homo sapiens, UniProt P54760)
EPHB4, sequence (P54760 whole entry): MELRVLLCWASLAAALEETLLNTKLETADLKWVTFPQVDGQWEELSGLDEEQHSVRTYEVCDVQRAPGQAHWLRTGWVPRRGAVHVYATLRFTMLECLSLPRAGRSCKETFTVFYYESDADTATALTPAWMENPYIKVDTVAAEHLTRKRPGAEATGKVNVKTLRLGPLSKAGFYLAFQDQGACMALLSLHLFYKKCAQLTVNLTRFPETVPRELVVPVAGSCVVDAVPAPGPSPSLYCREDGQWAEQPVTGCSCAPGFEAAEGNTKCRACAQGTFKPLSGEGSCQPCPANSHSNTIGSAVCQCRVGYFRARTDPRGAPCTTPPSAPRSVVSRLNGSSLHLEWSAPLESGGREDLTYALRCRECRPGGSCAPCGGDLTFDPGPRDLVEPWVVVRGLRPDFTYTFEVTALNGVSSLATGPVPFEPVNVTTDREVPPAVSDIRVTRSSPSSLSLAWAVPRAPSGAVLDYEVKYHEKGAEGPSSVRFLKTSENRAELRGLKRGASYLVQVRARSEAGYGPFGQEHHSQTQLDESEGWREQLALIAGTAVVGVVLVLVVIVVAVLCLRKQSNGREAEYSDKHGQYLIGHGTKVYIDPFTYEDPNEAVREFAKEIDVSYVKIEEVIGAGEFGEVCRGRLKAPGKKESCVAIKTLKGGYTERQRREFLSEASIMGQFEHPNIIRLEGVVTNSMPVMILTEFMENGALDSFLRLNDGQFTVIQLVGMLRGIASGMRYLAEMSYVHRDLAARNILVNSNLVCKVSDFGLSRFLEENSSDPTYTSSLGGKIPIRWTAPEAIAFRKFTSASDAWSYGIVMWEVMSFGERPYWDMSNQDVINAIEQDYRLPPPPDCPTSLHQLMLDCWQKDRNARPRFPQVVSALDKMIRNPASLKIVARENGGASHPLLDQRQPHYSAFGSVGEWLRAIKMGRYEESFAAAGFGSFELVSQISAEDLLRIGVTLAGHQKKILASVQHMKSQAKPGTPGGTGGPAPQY
Outline: as §1

[13] = molecular target: FLT1 (VEGFR1) (Homo sapiens, UniProt P17948)
Outline: as §1

[14] = molecular target: MYLK2 (skMLCK) (Homo sapiens, UniProt Q9H1R3)
Outline: as §1

[15] = molecular target: BLK (Homo sapiens, UniProt P51451)
Outline: as §1

[16] = molecular target: T2, LYN A (Homo sapiens, UniProt P07948)
T2 construct: isoform A
Outline: as §1

[17] = molecular target: CAMK4 (CaMKIV) (Homo sapiens, UniProt Q16566)
Outline: as §1

[18] = molecular target: ALK (Homo sapiens, UniProt Q9UM73)
Outline: as §1

[19] = molecular target: INSRR (IRR) (Homo sapiens, UniProt P14616)
INSRR (IRR), sequence (P14616 whole entry): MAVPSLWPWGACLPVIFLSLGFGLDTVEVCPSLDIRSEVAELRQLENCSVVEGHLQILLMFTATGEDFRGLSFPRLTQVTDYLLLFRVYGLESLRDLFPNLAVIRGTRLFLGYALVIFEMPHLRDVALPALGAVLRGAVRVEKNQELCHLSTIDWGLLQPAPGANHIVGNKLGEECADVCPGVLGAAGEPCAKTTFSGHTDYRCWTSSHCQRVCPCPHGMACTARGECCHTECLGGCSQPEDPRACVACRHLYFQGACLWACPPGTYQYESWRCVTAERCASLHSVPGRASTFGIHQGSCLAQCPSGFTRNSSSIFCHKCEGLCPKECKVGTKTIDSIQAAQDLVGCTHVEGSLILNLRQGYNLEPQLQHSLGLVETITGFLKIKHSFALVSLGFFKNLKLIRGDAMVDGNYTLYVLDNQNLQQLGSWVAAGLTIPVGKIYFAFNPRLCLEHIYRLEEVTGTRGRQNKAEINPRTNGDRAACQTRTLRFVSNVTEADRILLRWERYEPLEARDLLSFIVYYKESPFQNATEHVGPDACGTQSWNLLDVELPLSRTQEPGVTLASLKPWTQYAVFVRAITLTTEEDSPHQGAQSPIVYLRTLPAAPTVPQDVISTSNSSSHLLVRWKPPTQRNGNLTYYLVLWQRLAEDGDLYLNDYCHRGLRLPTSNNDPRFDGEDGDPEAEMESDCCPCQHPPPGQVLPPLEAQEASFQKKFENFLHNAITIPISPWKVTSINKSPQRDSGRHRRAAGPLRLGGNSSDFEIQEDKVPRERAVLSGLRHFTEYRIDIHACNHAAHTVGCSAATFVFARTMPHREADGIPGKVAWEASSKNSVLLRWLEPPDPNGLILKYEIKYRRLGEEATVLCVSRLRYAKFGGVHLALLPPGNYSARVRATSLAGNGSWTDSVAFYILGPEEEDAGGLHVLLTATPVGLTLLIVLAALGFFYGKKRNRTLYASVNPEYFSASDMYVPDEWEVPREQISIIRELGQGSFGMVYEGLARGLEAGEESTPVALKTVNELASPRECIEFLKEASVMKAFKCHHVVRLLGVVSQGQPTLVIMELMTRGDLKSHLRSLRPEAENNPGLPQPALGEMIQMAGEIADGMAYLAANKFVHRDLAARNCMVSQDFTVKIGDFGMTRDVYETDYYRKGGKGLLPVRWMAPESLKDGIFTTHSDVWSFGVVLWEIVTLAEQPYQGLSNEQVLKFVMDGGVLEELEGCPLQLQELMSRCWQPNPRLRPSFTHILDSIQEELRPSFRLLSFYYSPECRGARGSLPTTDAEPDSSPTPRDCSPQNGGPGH
Outline: as §1

[20] = molecular target: CSK (Homo sapiens, UniProt P41240)
Outline: as §1

[21] = molecular target: DYRK1A (Homo sapiens, UniProt Q13627)
Outline: as §1

[22] = molecular target: RAF1 (cRAF) Y340D Y341D (Homo sapiens, UniProt P04049, Y340D/Y341D)
Outline: as §1

## N#CCCNc1nccc(-c2cn(CC(F)F)nc2-c2cnc3[nH]ccc3c2)n1 [RAFi, PF-04880594]
[1]
  inhibition at 1 µM: -7%
[2]
  inhibition at 1 µM: 11%
[3]
  inhibition at 1 µM: 6%
[4]
  inhibition at 1 µM: -21%
[5]
  inhibition at 1 µM: 3%
[6]
  inhibition at 1 µM: 24%
[7]
  inhibition at 1 µM: 23%
[8]
  inhibition at 1 µM: 3%
[9]
  inhibition at 1 µM: 13%
[10]
  inhibition at 1 µM: 15%
[11]
  inhibition at 1 µM: 6%
[12]
  inhibition at 1 µM: 2%
[13]
  inhibition at 1 µM: 2%
[14]
  inhibition at 1 µM: 20%
[15]
  inhibition at 1 µM: 7%
[16]
  inhibition at 1 µM: 2%
[17]
  inhibition at 1 µM: -5%
[18]
  inhibition at 1 µM: 23%
[19]
  inhibition at 1 µM: 3%
[20]
  inhibition at 1 µM: 1%
[21]
  inhibition at 1 µM: -12%
[22]
  inhibition at 1 µM: 95%
